One may read the melting point as the temperature of the solid-liquid transition.

Structures are written as SMILES.

On to `CC(=O)OC[C@](O)(CO)c1ccc(F)cc1F`, for which the melting point was 52 to 53 °C.

On to `Nc1nc(=O)n(C(=O)NC2CCCC2)cc1F`, for which the melting point was in the range of 294 to 297 °C.

In the case of `Cc1nnc(NC(=O)C(c2ccccc2)c2ccccc2)o1`, the melting point was 160 to 161 °C.

Compound `Cc1nc(NC(=O)NS(=O)(=O)c2ccccc2C(=O)O)nc2c1CCC2` had a melting point of 183 to 184 °C.

In turn, `CCOC(=O)NC(=O)N(O)Cc1c(C)n(C(=O)c2ccc(Cl)cc2)c2ccc(OC)cc12` showed a melting point of 148 °C.

As for `CP(C)(=O)C(O)C(=O)O` (centres undefined), the melting point is 206 to 208 °C.

`Cc1ccc2c3c(c(=O)oc2c1)CN(CCN1CC2CCC(CC2)C1)CC3`: the melting point lay within 155 to 157 °C.

Regarding `CC(C(=O)O)N1CCNC(C(=O)O)C1` (centres undefined), the melting point was in the range of 173 to 174 °C.

Take `CC(C)Cn1c(CNC(=O)OC(C)(C)C)c(-c2cccs2)c2cc(C#N)ccc2c1=O`: the melting point lay within 189 to 190 °C.

For `COc1cc(-c2oc3ccc(CC(=O)NC(CC(C)C)C(N)=O)cc3c2SC)ccc1O` (centres undefined), the melting point was 220 °C.

As to `CC(=O)OC1CC2=CC=C3C4CCC(C(C)C=CC(C)C(C)C)C4(C)CCC3C2(C)C(OC(C)=O)C1` (centres undefined), the melting point was in the range of 128 to 130 °C.

In the case of `C[C@@]1(CBr)OC(=O)[C@H]2CCCN2C1=O`, the melting point fell in the range of 107 to 109 °C.

Take `Cc1nnc2n1-c1ccccc1C(c1ccccc1)=NC2NC(=O)Nc1ccc(Cl)cc1` (centres undefined): the melting point lay in the range of 292 to 294 °C.

Compound `CCN(C(=O)OC(C)(C)C)c1cnn(C(C)(C)C)c1Cl` showed a melting point of 50 to 52 °C.

`CCc1ccc(C(C)(C)C)c(O)c1C(=O)Nc1ccc(S(=O)(=O)C(F)(F)F)cc1Cl` gave a melting point of 126 to 127 °C.

`O=S(=O)(Cc1ccc(O)cc1)Cc1ccc(O)cc1` gave a melting point of 92 °C.

Regarding `CCc1nc(NC(=S)NCCc2ccccc2Oc2ccccc2)cs1`, the melting point was 168 °C.

In the case of `CC1(C)Oc2ccc(C#N)cc2[C@@H](Br)[C@@H]1O` (relative stereo), the melting point lay within 111 to 112 °C.

With `Cn1ccc(CNC(=O)c2ccnc(N3CCN(Cc4ccc(F)cc4)C3=O)c2)n1`, the melting point was 79 to 81 °C.

`COC(=O)c1ccc(S(C)(=O)=O)cc1N` came in with a melting point of 98.3 to 98.5 °C.

Regarding `CCOC(=O)c1c(-c2cccc(Cl)c2)c2cc(C(=O)c3nc(-c4ccccc4)cs3)ccc2[nH]c1=O`, the melting point amounted to 261 °C.

With `Cn1c(C(F)(F)F)cc(=O)n(-c2ccc3snc(CF)c3c2)c1=O`, the melting point lay within 201 to 202 °C.

The compound `O=C(NCc1ccccc1)NOCC(O)CN1CCCCC1` (centres undefined) had a melting point of 100 to 101 °C.

`CCCc1ccc2nc(S(=O)(=O)CC)c(S(N)(=O)=O)n2n1`: the melting point fell in the range of 232 to 233 °C.

For the compound `Cc1ccc(S(=O)(=O)NCCCC(NS(=O)(=O)c2ccc(-c3ccc(Cl)cc3)cc2)C(=O)O)cc1` (centres undefined), the melting point was found to be 62 °C.

As to `Cc1cc2c(c(C(C)(C)C)c1)OC(=O)C2=C1C(=O)Oc2c1cc(C)cc2C(C)(C)C`, the melting point is 253 to 255 °C.

In turn, `Cc1ccc2nc(-c3ccccc3)nc(Cl)c2c1` had a melting point of 111 to 113 °C.

On to `CC(=O)c1cnn2c(-c3cccc(C(F)(F)F)c3)ccnc12`, for which the melting point fell in the range of 127 to 130 °C.

For `C#CCn1c(C)c(CO)sc1=O`, the melting point turned out to be 62 °C.

With `Oc1ccc(SC2CC3CC(Sc4ccc(O)cc4)C2C3)cc1` (centres undefined), the melting point fell in the range of 142 to 146 °C.

`O=c1cc(-c2ccncc2)nc2n1CCC(c1ccncc1)N2` (centres undefined) displayed a melting point of 268 to 270 °C.

The compound `CCCn1ccc2c(NCCc3ccc(OC)cc3)cccc2c1=O` had a melting point of 109 to 110 °C.

`CCCCC1(Cc2c(F)cccc2Cl)NC=C(C=O)N1` (centres undefined) returned a melting point of 88 to 90 °C.

With `CCc1cc(OC)c(C=O)cc1OC`, the melting point was in the range of 46 to 47 °C.

Compound `CC(C=C(N)C(=O)OCc1ccc(Cl)cc1)CP(=O)(O)O` (centres undefined) came in with a melting point of 207 to 208 °C.

For `CC(C)(C)OC(=O)N[C@@H](CC1CCCCC1)[C@@H]1C[C@@H](C(C)(C)O)C(=O)O1`, the melting point was 123 to 125 °C.

`CC(C)Cc1nc2sc3c(NCc4cccnc4)ncnc3c2c2c1CCC(C)(C)C2` registered a melting point of 230 °C.

For `Cc1onc(NS(=O)(=O)c2ccccc2-c2ccc(-c3ncccn3)cc2CN2CCC(C)(C)C2=O)c1C`, the melting point is 125 to 132 °C.

`COc1cc2c(cc1F)C1(CO2)C(=O)N(CC2CCCO2)c2ccccc21` (centres undefined): the melting point fell in the range of 106 to 116 °C.

The compound `OC(c1cccc(-c2nnc(Nc3ccc(Cl)c(Cl)c3)s2)c1)c1cccc(C(F)(F)F)c1` (centres undefined) showed a melting point of 191 to 192 °C.

In turn, `COCCC(=O)Nc1ccc(Cl)c(C2(C)C(=O)N(Cc3ccc(OC)cc3OC)c3ccc(Cl)cc32)c1` (centres undefined) had a melting point of 168 °C.

In turn, `COc1ccc2c(c1)C(=O)CC1C2C(OC(C)=O)CC2(C)C(OC(C)=O)CCC12` (centres undefined) came in with a melting point of 199 to 200 °C.

The compound `O=C1c2ccccc2C(=O)N1Cc1nc(C2CC2)no1` returned a melting point of 115 °C.

Regarding `O=C(Oc1ccccc1)C(I)=C(I)I`, the melting point was 83 to 84.5 °C.

`O=C(NC1CC1)c1ccc(F)c2c1CC(N(CCCc1c[nH]c3ccc(F)cc13)C1CCC1)CO2` (centres undefined) registered a melting point of 134 °C.

The compound `COc1cc(-c2ccc(C3C(CCC(O)c4ccc(F)cc4)C(=O)N3c3ccc(F)cc3)cc2)cc(OC)c1OC` (centres undefined) came in with a melting point of 103 °C.

Consider `CS(=O)(=O)c1nccc(-n2cncn2)n1`, for which the melting point is 135 to 136 °C.

Consider `CCOC(=O)C(=CNc1nccs1)C(=O)c1ccc(Cl)nc1Cl`, for which the melting point lay in the range of 119 to 122 °C.

`COC(=O)c1ccc(S(=O)C(Cn2ccnc2)c2ccccc2OC)cc1` (centres undefined) registered a melting point of 113 to 115 °C.

`C[C@@H]1N=C(c2ccccc2Cl)c2cc(I)sc2NC1=O` displayed a melting point of 235 to 237 °C.

Consider `COC(=O)c1ccc(-c2nc3c(O)cccc3s2)cc1`, for which the melting point lay in the range of 215 to 219 °C.

In the case of `Cn1ccnc1CCNC(=O)c1ccccc1NS(=O)(=O)c1cccc(C(F)(F)F)c1`, the melting point is 127 to 129 °C.

The compound `CCOCc1nc2c(N)nc(C)c(C)c2n1CCCNC(=O)C(C)C` returned a melting point of 179 to 180 °C.

Compound `CS(=O)(=O)c1ccc(C2=C(Br)CCC2)cc1` showed a melting point of 103 to 104 °C.

The compound `COC(=O)c1ccc(CNC(C)=O)c([N+](=O)[O-])c1` showed a melting point of 100 to 102 °C.

Regarding `CC(=O)Oc1ccc(C(=O)NCCO[N+](=O)[O-])cc1`, the melting point fell in the range of 95 to 97 °C.

The compound `COC1=CC2=CCC3C(=CCC4(C)C(=O)C(C)CC34)C2(C)CC1` (centres undefined) came in with a melting point of 124 to 129 °C.

In the case of `CC(=O)c1cc2sc(N)c(C#N)c2s1`, the melting point worked out at 285 °C.

`O=C(O)c1csc(NC(=O)C(CC2CCCC2)c2ccc(Cl)c(Cl)c2)n1` (centres undefined): the melting point is 285 to 287 °C.

As to `O=C(O)c1ccc(CCCC2SCC(=O)N2CCC2(O)CCCCC2)cc1` (centres undefined), the melting point lay in the range of 147 to 148 °C.

As to `CC1=C2c3c(cnc4cc(Cl)ccc34)NC2C(C)CN1` (centres undefined), the melting point lay in the range of 188 to 190 °C.

`CCCc1[nH]c2cc(C(N)=O)ccc2c1C(=O)COC` came in with a melting point of 165 to 167 °C.

With `Cc1c([N+](=O)[O-])ccc2[nH]ccc12`, the melting point lay in the range of 179 to 180 °C.

Consider `O=C(NNC(=O)c1ccccn1)c1ccccn1`, for which the melting point lay within 224 to 225 °C.

Regarding `CC1(O)CC(=O)OC(CCc2ccc(OCc3ccccc3)cc2)C1` (centres undefined), the melting point lay in the range of 82 to 85 °C.

Turning to `O=C1c2ccccc2-c2c(Cl)nc3ccccc3c21`, the melting point fell in the range of 149 to 150 °C.

In turn, `CC/C=C\C/C=C\C/C=C\CCCCCCCC(=O)Nc1c(OC)cc(OC)cc1OC` had a melting point of 86 to 88 °C.

Consider `CCC(CC)(CC(=O)Nc1cccc(OCc2ccc3ccc(C)cc3n2)c1)C(=O)O`, for which the melting point is 75 to 76 °C.

The compound `COc1ccc(NS(=O)(=O)c2ccc(NC3=C(Cl)C(=O)c4ccccc4C3=O)cc2OC)cc1` showed a melting point of 165 to 167 °C.

In turn, `COC(=O)CCCCc1ccc(O)c(CCC(=O)OC)n1` returned a melting point of 92 to 95 °C.

For `O=C1CC(c2c(-c3ccc[nH]3)[nH]c3ccccc23)C(=O)N1` (centres undefined), the melting point lay within 67 to 69 °C.

For `COc1cc(-c2oc3c(OC)cc(/C=C/C=O)cc3c2C)ccc1O`, the melting point lay in the range of 169 to 170 °C.

For the compound `CCCC(=O)NCC1(C)Cc2c(C)c(N3CCN(c4ccc(OC)cc4)CC3)c(C)c(C)c2O1` (centres undefined), the melting point was 140 to 142 °C.

`CC(C)(C)OC(=O)NCCC(=O)c1c(Cl)cccc1[Si](C)(C)C` came in with a melting point of 51 to 52 °C.

Take `COc1ccc(C(C)(O)c2cccc(OCc3nc(-c4ccccc4)oc3C)c2)c(OCC(=O)O)c1` (centres undefined): the melting point lay in the range of 148 to 149 °C.

`CC(=O)NC1(c2ccc(=O)n(C)c2)CCCCC1` displayed a melting point of 194 to 195 °C.

Regarding `COc1ccc2c(c1)CN(C(=O)CN1CCCC1)N=C2Cc1c(Cl)cncc1Cl`, the melting point was in the range of 148 to 150 °C.

Turning to `CSc1noc(-c2ccc(OCCOc3ccccc3)cc2)c1C#N`, the melting point lay in the range of 128 to 131 °C.

On to `O=C(CCCCCCCCC(=O)OC1CCN(O)CC1)OC1CCN(O)CC1`, for which the melting point lay within 133 to 135 °C.

In turn, `CCCc1c(C(=O)C(C)C)c2ccc(C(=O)OC)cc2n1Cc1c(Cl)cccc1Cl` returned a melting point of 130 to 132 °C.

For `Cc1ccc(C)c(NC(=S)N2CCC(c3nc(C4=NOC(c5ccccc5)C4)cs3)CC2)c1` (centres undefined), the melting point was in the range of 120 to 123 °C.

In turn, `O=C1NCCN1c1ccc(S(=O)(=O)Nc2ccc3c(c2)Cc2ccccc2-3)cc1` displayed a melting point of 164 to 166 °C.

For the compound `COc1cccc(-n2nc(Sc3ccc(Cl)cc3)c(C)c(C#N)c2=O)c1`, the melting point is 148 to 149 °C.

`CCCCn1ncc(/C=C(\Cc2cc3c(cc2OC)OCO3)C(=O)O)c1-c1cc(Cl)c(C)cc1OCc1ccccc1C(=O)O` had a melting point of 114 to 116 °C.

For `CC(=O)OCCN1CCSc2ccc(Nc3ncc(Cl)c(N[C@@H]4CCCC[C@H]4NS(C)(=O)=O)n3)cc2C1`, the melting point fell in the range of 85 to 90 °C.

As to `O=C(O)COc1ccc(C(=O)CN2CCN(c3ccncc3)CC2)cc1`, the melting point was 294 to 296 °C.

Turning to `COc1ccc2cc(Nc3ccc(OCc4ccccc4)cc3)ccc2c1`, the melting point lay within 155 to 157 °C.

Regarding `CC(C)(C)N1CN(Cc2ccccc2)C(N)=C2C=NN=C21`, the melting point lay within 138 to 140 °C.

`O=C(OCC1CO1)c1cccc(C(=O)OCC2CO2)c1` (centres undefined) had a melting point of 60 to 65 °C.

For the origin of these results see a melting point compilation (Tetko et al.; mined from patent text by program, amines drawn as free bases though some values may be those of a salt).
